From the NIST ThermoML archive (doi:10.1016/j.jct.2011.12.008)
± gives the expanded uncertainty stated by the source.

How the values were obtained:
[1] = 101.33 kPa, Liquid; for viscosity: Capillary tube (Ostwald / Ubbelohde) method; for mass density: Vibrating tube method
[2] = xn = mol fraction of the nth substance listed; conditions: 101 kPa, Liquid; for viscosity: Capillary tube (Ostwald / Ubbelohde) method; for mass density: Vibrating tube method

Structure (SMILES)	viscosity ([1]; 293.15 K) [mPa·s]	mass density ([1]; 293.15 K) [kg/m3]	viscosity ([1]; 298.15 K) [mPa·s]	mass density ([1]; 298.15 K) [kg/m3]	viscosity ([1]; 303.15 K) [mPa·s]	mass density ([1]; 303.15 K) [kg/m3]	viscosity ([1]; 308.15 K) [mPa·s]	mass density ([1]; 308.15 K) [kg/m3]	viscosity ([1]; 313.15 K) [mPa·s]	mass density ([1]; 313.15 K) [kg/m3]	viscosity ([1]; 318.15 K) [mPa·s]	mass density ([1]; 318.15 K) [kg/m3]	viscosity ([1]; 323.15 K) [mPa·s]	mass density ([1]; 323.15 K) [kg/m3]	viscosity ([1]; 328.15 K) [mPa·s]	mass density ([1]; 328.15 K) [kg/m3]	viscosity ([1]; 333.15 K) [mPa·s]	mass density ([1]; 333.15 K) [kg/m3]	viscosity ([1]; 338.15 K) [mPa·s]	mass density ([1]; 338.15 K) [kg/m3]	further results
CCCCCCn1cc[n+](C)c1.F[B-](F)(F)F [1-hexyl-3-methylimidazolium tetrafluoroborate]	234.68 ± 11	1149.05 ± 1.2	178.92 ± 8.4	1145.61 ± 1.1	136.15 ± 6.2	1142.3 ± 1.1	106.65 ± 4.7	1138.95 ± 1.1	83.13 ± 3.6	1135.59 ± 1.1	69.13 ± 2.9	1132.22 ± 1.1	56.74 ± 2.4	1128.88 ± 1.1	48.36 ± 2	1125.5 ± 1.1	43.01 ± 1.8	1122.14 ± 1.1	37.15 ± 1.6	1118.8 ± 1.1	–
CCCCCCn1cc[n+](C)c1.F[B-](F)(F)F [1-hexyl-3-methylimidazolium tetrafluoroborate] + NCCCO	–	–	–	–	–	–	–	–	–	–	–	–	–	–	–	–	–	–	–	–	viscosity ([2]; 293.15 K, x1 = 1): 234.68 ± 11 mPa·s; mass density ([2]; 293.15 K, x1 = 1): 1149.05 ± 1.1 kg/m3; viscosity ([2]; 298.15 K, x1 = 1): 178.92 ± 8.4 mPa·s; mass density ([2]; 298.15 K, x1 = 1): 1145.61 ± 1.1 kg/m3; viscosity ([2]; 303.15 K, x1 = 1): 136.15 ± 6.2 mPa·s; mass density ([2]; 303.15 K, x1 = 1): 1142.3 ± 1.1 kg/m3; viscosity ([2]; 308.15 K, x1 = 1): 106.65 ± 4.7 mPa·s; mass density ([2]; 308.15 K, x1 = 1): 1138.95 ± 1.1 kg/m3; viscosity ([2]; 313.15 K, x1 = 1): 83.13 ± 3.6 mPa·s; mass density ([2]; 313.15 K, x1 = 1): 1135.59 ± 1.1 kg/m3; viscosity ([2]; 318.15 K, x1 = 1): 69.13 ± 2.9 mPa·s; mass density ([2]; 318.15 K, x1 = 1): 1132.22 ± 1.1 kg/m3; viscosity ([2]; 323.15 K, x1 = 1): 56.74 ± 2.4 mPa·s; mass density ([2]; 323.15 K, x1 = 1): 1128.88 ± 1.1 kg/m3; viscosity ([2]; 328.15 K, x1 = 1): 48.36 ± 2 mPa·s; mass density ([2]; 328.15 K, x1 = 1): 1125.5 ± 1.1 kg/m3; viscosity ([2]; 333.15 K, x1 = 1): 43.01 ± 1.8 mPa·s; mass density ([2]; 333.15 K, x1 = 1): 1122.14 ± 1.1 kg/m3; viscosity ([2]; 338.15 K, x1 = 1): 37.15 ± 1.6 mPa·s; mass density ([2]; 338.15 K, x1 = 1): 1118.8 ± 1.1 kg/m3
CC(C)CO [2-methyl-1-propanol]	4.085 ± 0.17	801.75 ± 0.24	3.45 ± 0.14	797.89 ± 0.24	2.877 ± 0.12	793.99 ± 0.24	2.385 ± 0.098	790.04 ± 0.24	2.091 ± 0.086	786.04 ± 0.24	1.85 ± 0.076	781.98 ± 0.24	1.576 ± 0.065	777.85 ± 0.24	1.297 ± 0.053	773.65 ± 0.24	1.124 ± 0.046	769.36 ± 0.24	0.9876 ± 0.041	764.99 ± 0.24	–
CC(C)CO [2-methyl-1-propanol] + CCCCCCn1cc[n+](C)c1.F[B-](F)(F)F	–	–	–	–	–	–	–	–	–	–	–	–	–	–	–	–	–	–	–	–	viscosity ([2]; 293.15 K, x2 = 0): 4.085 ± 0.17 mPa·s; mass density ([2]; 293.15 K, x2 = 0): 801.75 ± 0.24 kg/m3; viscosity ([2]; 298.15 K, x2 = 0): 3.45 ± 0.14 mPa·s; mass density ([2]; 298.15 K, x2 = 0): 797.89 ± 0.24 kg/m3; viscosity ([2]; 303.15 K, x2 = 0): 2.877 ± 0.12 mPa·s; mass density ([2]; 303.15 K, x2 = 0): 793.99 ± 0.24 kg/m3; viscosity ([2]; 308.15 K, x2 = 0): 2.385 ± 0.098 mPa·s; mass density ([2]; 308.15 K, x2 = 0): 790.04 ± 0.24 kg/m3; viscosity ([2]; 313.15 K, x2 = 0): 2.091 ± 0.086 mPa·s; mass density ([2]; 313.15 K, x2 = 0): 786.04 ± 0.24 kg/m3; viscosity ([2]; 318.15 K, x2 = 0): 1.85 ± 0.076 mPa·s; mass density ([2]; 318.15 K, x2 = 0): 781.98 ± 0.24 kg/m3; viscosity ([2]; 323.15 K, x2 = 0): 1.576 ± 0.065 mPa·s; mass density ([2]; 323.15 K, x2 = 0): 777.85 ± 0.24 kg/m3; viscosity ([2]; 328.15 K, x2 = 0): 1.297 ± 0.053 mPa·s; mass density ([2]; 328.15 K, x2 = 0): 773.65 ± 0.24 kg/m3; viscosity ([2]; 333.15 K, x2 = 0): 1.124 ± 0.046 mPa·s; mass density ([2]; 333.15 K, x2 = 0): 769.36 ± 0.24 kg/m3; viscosity ([2]; 338.15 K, x2 = 0): 0.9876 ± 0.041 mPa·s; mass density ([2]; 338.15 K, x2 = 0): 764.99 ± 0.24 kg/m3
NCCCO [3-amino-1-propanol]	39.29 ± 1.6	987.55 ± 0.23	30.43 ± 1.3	983.55 ± 0.23	23.87 ± 0.99	979.53 ± 0.23	19.07 ± 0.79	975.51 ± 0.23	15.27 ± 0.63	971.47 ± 0.23	12.35 ± 0.51	967.43 ± 0.23	10.22 ± 0.42	963.37 ± 0.23	8.535 ± 0.35	959.3 ± 0.23	7.123 ± 0.29	955.22 ± 0.23	6.045 ± 0.25	951.14 ± 0.23	–
